Earlier results, collected in patent US6297274A, “Nonpeptide endothelin antagonists with increased water solubility” (priority 1998, dated 2001).
Where a SMILES comes first, the peptide text is derived from it. [ ]: non-standard residue; d: D form.

What was measured:
[1] = test system: ET-1 induced bronchoconstriction and tracheal smooth muscle contraction; settings: allergic sheep; cited from earlier work
[2] = test system: rat hypoxia model of hypertension; settings: cited from earlier work
[3] = test system: early cerebral vasospasm following subarachnoid hemorrhage (SAH); settings: in vivo; cited from earlier work
[4] = test system: ET-1-induced gastric ulceration; settings: in vivo; cited from earlier work
[5] = test system: early cerebral vasospasm following SAH in the rat; settings: cited from earlier work
[6] = test system: ischemic brain injury in rats; settings: oral; cited from earlier work
[7] = test system: vasoconstriction of the basilar artery; settings: after 7 days, canine two-hemorrhage model; cited from earlier work
[8] = test system: liver; settings: cited from earlier work
[9] = test system: small intestinal mucosa; settings: rats, local intra-arterial; cited from earlier work

For CC(C)C[C@@H]1NC(=O)[C@@H](C(C)C)NC(=O)[C@@H]2CCCN2C(=O)[C@@H](CC(=O)O)NC(=O)[C@@H](Cc2c[nH]c3ccccc23)NC1=O [BQ-123] (cyclo(L[dW][dD]P[dV])), the “ET-1 induced bronchoconstriction and tracheal smooth muscle contraction” value [1] is listed as “shown to block ET-1 induced bronchoconstriction and tracheal smooth muscle contraction in allergic sheep”, the “pulmonary vascular resistance and pulmonary arterial pressure” value [2] is listed as “provide protection in a rat hypoxia model of hypertension by lowering the increase in pulmonary vascular resistance and pulmonary arterial pressure” and the “early cerebral vasospasm following SAH” value [3] is listed as “prevent early cerebral vasospasm following subarachnoid hemorrhage (SAH)”.

For COc1ccccc1Oc1c(NS(=O)(=O)c2ccc(C(C)(C)C)cc2)nc(-c2ncccn2)nc1OCCO [Bosentan], the “pulmonary vascular resistance and pulmonary arterial pressure” value [2] is given as “provide protection in a rat hypoxia model of hypertension by lowering the increase in pulmonary vascular resistance and pulmonary arterial pressure” and the “ET-1-induced changes in gastric mucosal hemodynamics and gastric ulceration” value [4] is given as “antagonist toward the ET-1-induced changes in gastric mucosal hemodynamics as well as on ET-1-induced gastric ulceration”.

In the case of COc1cccc(Oc2c(NS(=O)(=O)c3ccc(C(C)(C)C)cc3)ncnc2OCCO)c1 [Ro 46-2005], the “early cerebral vasospasm following SAH” value [5] is given as “prevent early cerebral vasospasm following SAH in the rat”.

In the case of CCCOc1ccc2c(c1)[C@@H](c1ccc(OC)cc1OCCO)[C@H](C(=O)O)[C@H]2c1ccc2c(c1)OCO2 [SB 217242], the “reduction of ischemic brain injury” value [6] is given as “Reduction of ischemic brain injury in rats was also demonstrated”.

In the case of FR 139317, the “vasoconstriction of the basilar artery” value [7] is listed as “significantly inhibited the vasoconstriction of the basilar artery”.

For endothelin, the “hepatic vasculature vasoconstriction and hepatic glucose output” value [8] is given as “eliciting both sustained vasoconstriction of the hepatic vasculature and a significant increase in hepatic glucose output” and the “small intestinal mucosal damage” value [9] is given as “shown to induce small intestinal mucosal damage in rats in a dose-dependent manner”.
